Data reported in publication PMC9274755, “KDM4 inhibitor SD49-7 attenuates leukemia stem cell via KDM4A/MDM2/p21^CIP1 axis” (Theranostics, 2022).

Columns and labels:
KDM4C = target: T1, KDM4C (Homo sapiens, UniProt Q9H3R0); test: SPR (Biacore T200), protein immobilized on CM5 chip; assay type: binding
T1 sequence (Q9H3R0 1-1056): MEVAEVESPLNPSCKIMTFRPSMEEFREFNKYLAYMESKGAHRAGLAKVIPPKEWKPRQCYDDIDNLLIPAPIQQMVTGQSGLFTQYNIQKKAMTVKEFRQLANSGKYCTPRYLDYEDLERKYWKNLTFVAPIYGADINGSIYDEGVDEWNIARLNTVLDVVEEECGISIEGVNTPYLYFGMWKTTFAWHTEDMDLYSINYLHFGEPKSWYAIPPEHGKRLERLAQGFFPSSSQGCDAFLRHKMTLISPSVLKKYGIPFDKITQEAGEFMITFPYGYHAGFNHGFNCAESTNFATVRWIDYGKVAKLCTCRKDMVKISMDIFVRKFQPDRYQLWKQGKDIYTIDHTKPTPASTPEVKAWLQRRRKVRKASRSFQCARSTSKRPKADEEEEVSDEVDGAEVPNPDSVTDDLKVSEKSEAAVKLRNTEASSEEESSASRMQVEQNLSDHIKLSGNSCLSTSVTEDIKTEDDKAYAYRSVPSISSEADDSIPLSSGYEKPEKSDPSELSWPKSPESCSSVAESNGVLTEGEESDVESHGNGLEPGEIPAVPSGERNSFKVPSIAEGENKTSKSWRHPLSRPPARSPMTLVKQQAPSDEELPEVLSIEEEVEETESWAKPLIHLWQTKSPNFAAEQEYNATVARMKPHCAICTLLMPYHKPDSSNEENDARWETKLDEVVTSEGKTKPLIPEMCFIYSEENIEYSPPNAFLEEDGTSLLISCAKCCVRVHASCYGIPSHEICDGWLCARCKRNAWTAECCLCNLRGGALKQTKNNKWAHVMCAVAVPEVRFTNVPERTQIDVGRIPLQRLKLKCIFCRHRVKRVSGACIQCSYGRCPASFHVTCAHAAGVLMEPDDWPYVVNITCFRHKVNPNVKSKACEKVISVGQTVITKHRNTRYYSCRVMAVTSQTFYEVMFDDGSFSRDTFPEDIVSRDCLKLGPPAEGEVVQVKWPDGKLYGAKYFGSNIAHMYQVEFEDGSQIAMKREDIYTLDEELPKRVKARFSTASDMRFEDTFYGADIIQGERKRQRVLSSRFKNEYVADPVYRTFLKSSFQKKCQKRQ

KDM4A = target: T2, KDM4A (Homo sapiens, UniProt O75164); test: as above; assay type: binding
T2 sequence (O75164 2-1064): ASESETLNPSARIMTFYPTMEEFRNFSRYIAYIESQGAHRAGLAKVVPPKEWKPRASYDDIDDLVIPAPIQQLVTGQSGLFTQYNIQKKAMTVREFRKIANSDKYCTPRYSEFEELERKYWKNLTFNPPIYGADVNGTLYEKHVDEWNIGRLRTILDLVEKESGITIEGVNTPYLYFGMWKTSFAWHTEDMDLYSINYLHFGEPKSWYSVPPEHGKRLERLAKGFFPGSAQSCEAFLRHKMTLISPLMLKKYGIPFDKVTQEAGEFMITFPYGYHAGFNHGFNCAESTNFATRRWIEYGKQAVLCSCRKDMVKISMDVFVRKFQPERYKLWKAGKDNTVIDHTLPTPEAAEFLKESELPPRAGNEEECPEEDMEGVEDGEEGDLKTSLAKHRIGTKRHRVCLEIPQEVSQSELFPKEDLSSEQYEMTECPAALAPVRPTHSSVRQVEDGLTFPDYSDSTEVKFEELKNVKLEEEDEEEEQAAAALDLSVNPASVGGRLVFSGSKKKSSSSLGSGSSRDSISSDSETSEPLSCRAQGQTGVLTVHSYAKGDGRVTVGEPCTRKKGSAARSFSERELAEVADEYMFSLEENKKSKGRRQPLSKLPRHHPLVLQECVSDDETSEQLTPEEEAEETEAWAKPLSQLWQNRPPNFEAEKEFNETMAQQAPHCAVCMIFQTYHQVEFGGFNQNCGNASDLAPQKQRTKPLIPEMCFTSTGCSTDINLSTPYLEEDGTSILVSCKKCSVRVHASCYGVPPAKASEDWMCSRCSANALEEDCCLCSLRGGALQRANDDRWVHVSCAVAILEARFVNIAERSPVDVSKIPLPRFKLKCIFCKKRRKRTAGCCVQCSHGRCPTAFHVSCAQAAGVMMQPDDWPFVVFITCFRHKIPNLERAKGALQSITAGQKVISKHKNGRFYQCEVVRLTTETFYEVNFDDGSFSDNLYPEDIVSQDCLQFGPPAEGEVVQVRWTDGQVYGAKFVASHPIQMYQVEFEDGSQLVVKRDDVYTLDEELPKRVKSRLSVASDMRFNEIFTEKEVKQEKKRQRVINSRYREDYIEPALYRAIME

Row | Kd (KDM4C) [nM] | Kd (KDM4A) [nM] | SMILES
1 | 1060 | 988 | O=C(N/N=C/c1c(O)ccc2ccccc12)c1ccccc1O [SD49-7]
2 | 2590 | 18000 | CC(C)C(=O)NC(c1ccco1)c1ccc2cccnc2c1O (stereo not shown) [SD70]
